Test results as given in patent publication US20030211076A1, “Compositions and methods for treatment of proliferative disorders” (priority 2003, published 2003).
Entries after “also recorded” stand apart in the source; their conditions may differ.

Tests used:
[1] = system: porcine pulmonary arterial vascular endothelial cells (VEC); assay: Growth of Tat-stimulated vascular endothelial cells (cell counting, phase-contrast microscopy); assay type: cell-based
Description: Stimulation of cell proliferation of porcine pulmonary arterial vascular endothelial cells (VEC) was tested with LO-oxidized Tat. VEC (2×10^4) were plated and incubated overnight in 35 mm-dishes containing 2 ml 15% FBS/M199 medium, and then refed with 5% FBS/M199 with different treatment regimens as shown in A, B and C of FIG. 13. FIG. 13A represents a dose response of Tat-stimulated cell growth. Media were supplemented with Tat at the indicated doses and cells were incubated for additional 3 days. Cultures were refed once during the incubation period with fresh media supplemented with Tat at indicated doses. Cells were harvested by trypsinization and counted with a hemacytometer. FIG. 13B represents the LO inhibition of Tat-stimulated cell growth. FIG. 13C represents the effects of inactivation of LO by BAPN on Tat-stimulated cell growth. LO: 3 or 10 nM, Tat: 10 ng ml^−1, BAPN: 100 μM. Data represent the means (±sd) of three separate experiments each assessed with triplicate dishes.
Numerical and morphological alterations in Tat-stimulated VEC cells treated with LO were observed under phase-contrast microscopy (25'). Cells were cultured as described in FIG. 13 and treated with additives as indicated below. The following represents FIG. 14 phase contrast microscopy: A, control; B, 10 ng ml^−1Tat; C, 10 ng ml^−1 Tat+3 nM LO; D, 10 ng ml^−1 Tat+3 nM LO that was preincubated with 100 μM BAPN for 15 min at 370; E, 100 μM BAPN, alone, and F, 3 nM LO, alone.

[2] = system: FGF2 nuclear localization in Swiss 3T3 cells; assay: FGF2 nuclear localization, immunochemical staining; assay type: cell-based
Description: After endocytosis, a fraction of exogenous FGF2 can enter the nucleus of a variety of cell types in a cell cycle-dependent manner (Mason; Rifkin et al.; Prats et al.; Stachowiak et al., 1996; Arese et al.; Baldin et al.). Thus, the possibility that oxidation of FGF2 by LO affects the nuclear localization of this growth factor was tested by using immunochemistry. In FIGS. […]

[3] = system: transformed NIH 3T3 6-1 cells overexpressing FGF2; assay: LO inhibition of tumor cell growth (cell counting, phase-contrast and fluorescent microscopy); assay type: cell-based, mouse
Description: Transformed NIH 3T3 6-1 cells (2×10^4) overexpressing FGF2 were plated and incubated overnight in 35 mm-dishes containing 2 ml 10% fetal bovine serum (FBS)/Dulbecco's Modified Eagle's (DME) medium, and then refed with 0.3% FBS/DMEM with different treatment regimens as shown in FIGS. 9A and 9B. FIG. 9A represents a dose response. Cells were treated with LO at various doses for a total of 6 days. Cultures were refed with fresh media supplemented with LO, as indicated, every two days. After treatment, cells were harvested by trypsinization and counted with a hemacytometer. FIG. 9B represents the effects of inactivation of LO by BAPN on tumor cell growth. LO was present at 25 nM and BAPN at 200 μM as indicated. Data represent the means (±sd) of three separate experiments each assessed with triplicate dishes.
Numerical and morphological alterations in tumor cells treated with LO were observed under phase-contrast microscopy (25×). FIG. 10 comprises the following: A, control; B, 25 nM LO; C, 25 nM LO+200 μM BAPN; D, 200 μM BAPN alone; and E and F, LO uptake by NIH3T3 6-1 cells. In E and F, cells grown on coverslips were exposed to FITC-conjugated LO (0.16 μg/ml) for 2 h, then fixed and examined by fluorescent microscopy (100×).

VEC on Matrigel = assay: Time course of angiogenic response of VEC on Matrigel without Tat stimulation; assay type: cell-based; details: 6, 24 and 48 h
Description: Time course studies on inhibition by LO of angiogenic response of VEC on Matrigel without Tat stimulation was also investigated. Cells (3×10^5) were plated on Matrigel-coated dishes. After 1 h incubation, various reagents were added to each culture. […] At each time point, a, control; b,10 nM LO; c,10 nM LO that was preincubated with 100 μM BAPN for 15 min at 37°; d, 100 μM BAPN, alone.

Molecule	cell growth ([1]; 100 μM BAPN alone)	effect on LO inhibition of Tat-stimulated cell growth ([1]; 100 μM BAPN, LO 3 or 10 nM, Tat 10 ng/ml)	effect on LO inhibition of nuclear translocation of FGF2 ([2]; 100 μM BAPN with LO and FGF2)	FGF2 transport to the nucleolus ([2]; BAPN in the absence of added LO)	proliferation relative to the control ([3]; 200 μM BAPN added with 25 nM LO, 6 days) [fold]	tumor cell growth relative to the control ([3]; 200 μM BAPN in the absence of added LO, 6 days) [fold]	organization of VEC to form capillary-like structure (VEC on Matrigel; 100 μM BAPN alone)	Tat-dependent cell proliferation ([1]; LO at 3 nM, Tat 10 ng/ml)	cell numbers ([1]; LO at doses ≧10 nM, Tat 10 ng/ml)	levels of nuclear FGF2 ([2]; LO in the absence of exogenous FGF2 or BAPN)	intranuclear FGF2 ([2]; simultaneously incubated with FGF2 and 10 nM LO)	decrease of cell number compared to the control (maximal inhibition) ([3]; 25 nM LO, 6 days, 0.3% FBS/DMEM) [%]	numerical and morphological alterations in tumor cells ([3]; 25 nM LO, phase-contrast microscopy)	organization of VEC to form capillary-like structure (VEC on Matrigel; 10 nM LO preincubated with 100 μM BAPN (BAPN-inactivated))	organization of VEC to form capillary-like structure (VEC on Matrigel; 10 nM active LO)
N#CCCN [BAPN, β-Aminopropionitrile, reference compound]	had no effect on the cell growth	totally inhibited; also recorded: cells sustained growth to confluence	prevented	increased FGF2 transport to the nucleolus	3	2.5	did not have significant effects	–	–	–	–	–	–	–	–
lysyl oxidase [LO]	–	–	–	–	–	–	–	effectively suppressed the Tat-dependent cell proliferation to the control level; also recorded: the growth stimulating ability of Tat was inhibited	severe loss in cell numbers below the control	reduced levels of nuclear FGF2	did not exhibit enhanced levels of intranuclear FGF2	95	induced cell death	strong inhibitory effects	strong inhibitory effects
